# Data from patent publication US20190374563A1, “TREATMENT OF KLEBSIELLA PNEUMONIAE INFECTIONS WITH ANTIBACTERIAL AMINOGLYCOSIDE COMPOUNDS” (Achaogen, Inc., priority 2009, published 2019).
# Like-named read-outs stand apart in the source and are kept apart here.
# What was measured:
# [1] = test system: E. coli ATCC 25922 (AECO001); experiment: MIC assay, CLSI broth microdilution; type: cell-based; parameters: MIC AECO001: unit not given here; conditions: for MIC: Escherichia coli
# Description: (§1) Minimum inhibitory concentrations (MIC) were determined by reference Clinical and Laboratory Standards Institute (CLSI) broth microdilution methods per M7-A7 [2006]. Quality control ranges utilizing E. coli ATCC 25922, P. aeruginosa ATCC 27853 and S. aureus ATCC 29213, and interpretive criteria for comparator agents were as published in CLSI M100-S17 [2007]. Briefly, serial two-fold dilutions of the test compounds were prepared at 2× concentration in Mueller Hinton Broth. The compound dilutions were mixed in 96-well assay plates in a 1:1 ratio with bacterial inoculum. The inoculum was prepared by suspension of a colony from an agar plate that was prepared the previous day. Bacteria were suspended in sterile saline and added to each assay plate to obtain a final concentration of 5×10^5 CFU/mL. The plates were incubated at 35° C. for 20 hours in ambient air.
# [2] = test system: P. aeruginosa ATCC 27853 (APAE001); experiment: MIC assay, CLSI broth microdilution; type: cell-based; conditions: Pseudomonas aeruginosa
# Description: as §1
# [3] = ATCC25922, read-out: MIC AECO001
# [4] = ATCC27853, read-out: MIC APAE001
"MIC ([1]; Table 1, AECO001 is ATCC25922, read-out: MIC AECO001) [µg/mL]","MIC AECO001 ([1]; Table 3, E. coli ATCC25922)","MIC ([2]; Table 1, APAE001 is ATCC27853, read-out: MIC APAE001) [µg/mL]",Compound,"MIC [1, 3] [µg/mL]","MIC [2, 4] [µg/mL]"
,,,"CN[C@@H]1[C@@H](O)[C@@H](O[C@@H]2[C@@H](O)[C@H](O[C@H]3OC(CN)=CC[C@H]3NCCCN)[C@@H](N)C[C@H]2NC(=O)[C@@H](O)CCN)OC[C@]1(C)O [Example 91, 2′-(3-Amino-propyl)-1-(4-amino-2(S)-hydroxy-butyryl)-sisomicin]",< 1,< 1
,,,"CN[C@@H]1[C@@H](O)[C@@H](O[C@@H]2[C@@H](O)[C@H](O[C@H]3OC(CNCC4(CN)CC4)=CC[C@H]3N)[C@@H](N)C[C@H]2NC(=O)C(O)C2CNC2)OC[C@]1(C)O (stereo partly drawn) [Example 74, 6′-(Methyl-1-aminomethyl-cyclopropyl)-1-(2-(azetidin-3-yl)-2-hydroxy-acetyl)-sisomicin]",1 to 16,> 16
,,,"CN[C@@H]1[C@@H](O)[C@@H](O[C@@H]2[C@@H](O)[C@H](O[C@H]3OC(CNCCCN)=CC[C@H]3N)[C@@H](N)C[C@H]2NC(=O)C(O)C2CNC2)OC[C@]1(C)O (stereo partly drawn) [Example 76, 6′-(3-Amino-propyl)-1-(2-(azetidin-3-yl)-2-hydroxy-acetyl)-sisomicin]",1 to 16,1 to 16
1 to 16,1,1 to 16,"CN[C@@H]1[C@@H](O)[C@@H](O[C@@H]2[C@@H](O)[C@H](O[C@H]3OC(CNCC4CCNCC4)=CC[C@H]3N)[C@@H](N)C[C@H]2NC(=O)[C@@H](O)CCN)OC[C@]1(C)O [Example 12, 6′-(Methyl-piperidin-4-yl)-1-(4-amino-2(S)-hydroxy-butyryl)-sisomicin]",,
,,,"CN[C@@H]1[C@@H](O)[C@@H](O[C@@H]2[C@@H](O)[C@H](O[C@H]3OC(CNCC4CC4)=CC[C@H]3N)[C@@H](N)C[C@H]2NC(=O)[C@H](O)CCN)OC[C@]1(C)O [Example 5, 6′-(Methyl-cyclopropyl)-1-(4-amino-2(R)-hydroxy-butyryl)-sisomicin]",< 1,1 to 16
,,,"CN[C@@H]1[C@@H](O)[C@@H](O[C@@H]2[C@@H](O)[C@H](O[C@H]3OC(CNCC4(CN)CC4)=CC[C@H]3N)[C@@H](N)C[C@H]2NC(=O)[C@@H](O)CN)OC[C@]1(C)O [Example 66, 6′-(Methyl-1-aminomethyl-cyclopropyl)-1-(3-amino-2(S)-hydroxy-propionyl)-sisomicin]",< 1,1 to 16
,,,CN[C@@H]1[C@@H](O)[C@@H](O[C@@H]2[C@@H](O)[C@H](O[C@H]3OC(CNCCO)=CC[C@H]3N)[C@@H](N)C[C@H]2NC(=O)C2(O)CNC2)OC[C@]1(C)O [Example 37],< 1,1 to 16
,,,"CN[C@@H]1[C@@H](O)[C@@H](O[C@@H]2[C@@H](O)[C@H](O[C@H]3OC(CNC[C@H](O)CO)=CC[C@H]3N)[C@@H](N)C[C@H]2NC(=O)[C@@H](O)CCN)OC[C@]1(C)O [Example 28, 6′-(2(S)-Hydroxy-propanol)-1-(4-amino-2(S)-hydroxy-butyryl)-sisomicin]",1 to 16,1 to 16
,,,CN[C@@H]1[C@@H](O)[C@@H](O[C@@H]2[C@@H](O)[C@H](O[C@H]3OC(CNC[C@H]4C[C@H](N)C4)=CC[C@H]3N)[C@@H](N)C[C@H]2NC(=O)C2(O)CC(N)C2)OC[C@]1(C)O (stereo partly drawn) [Example 60],< 1,1 to 16
,,,"CN[C@@H]1[C@@H](O)[C@@H](O[C@@H]2[C@@H](O)[C@H](O[C@H]3OC(CNCC(O)CCN)=CC[C@H]3N)[C@@H](N)C[C@H]2NC(=O)[C@@H](O)CN)OC[C@]1(C)O (stereo partly drawn) [Example 68, 6′-(2-Hydroxy-4-amino-butyl)-1-(3-amino-2(S)-hydroxy-propionyl)-sisomicin]",1 to 16,1 to 16
,,,"CN[C@@H]1[C@@H](O)[C@@H](O[C@@H]2[C@@H](O)[C@H](O[C@H]3OC(CNCC(O)CO)=CC[C@H]3N)[C@@H](N)C[C@H]2NC(=O)CO)OC[C@]1(C)O (stereo partly drawn) [Example 23, 6′-(2-Hydroxy-propanol)-1-(2-hydroxy-acetyl)-sisomicin]",> 16,> 16
,,,"CN[C@@H]1[C@@H](O)[C@@H](O[C@@H]2[C@@H](O)[C@H](O[C@H]3OC(CNCC4(N)CC4)=CC[C@H]3N)[C@@H](N)C[C@H]2NC(=O)[C@@H](O)CN)OC[C@]1(C)O [Example 67, 6′-(Methyl-1-Amino-cyclopropyl)-1-(3-amino-2(S)-hydroxy-propionyl)-sisomicin]",1 to 16,1 to 16
,,,"CN[C@@H]1[C@@H](O)[C@@H](O[C@@H]2[C@@H](O)[C@H](O[C@H]3OC(CN)=CC[C@H]3NCC3CCNC3)[C@@H](N)C[C@H]2NC(=O)[C@@H](O)CCN)OC[C@]1(C)O (stereo partly drawn) [Example 84, 2′-(Methyl-pyrrolidin-3-yl)-1-(4-amino-2(S)-hydroxy-butyryl)-sisomicin]",< 1,1 to 16
